Assay results as given in US12581252B2, “Substituted pyrrolo[3,4-b]pyridines as PI3K-α inhibitors” (Relay Therapeutics, Inc., priority 2020, dated 2026).

biological target: H1047R PIK3CA enzyme (Homo sapiens, UniProt P42336, H1047R); assay: ADP-Glo Biochemical PIK3CA Kinase Assay
Sequence (P42336 whole entry H1047R): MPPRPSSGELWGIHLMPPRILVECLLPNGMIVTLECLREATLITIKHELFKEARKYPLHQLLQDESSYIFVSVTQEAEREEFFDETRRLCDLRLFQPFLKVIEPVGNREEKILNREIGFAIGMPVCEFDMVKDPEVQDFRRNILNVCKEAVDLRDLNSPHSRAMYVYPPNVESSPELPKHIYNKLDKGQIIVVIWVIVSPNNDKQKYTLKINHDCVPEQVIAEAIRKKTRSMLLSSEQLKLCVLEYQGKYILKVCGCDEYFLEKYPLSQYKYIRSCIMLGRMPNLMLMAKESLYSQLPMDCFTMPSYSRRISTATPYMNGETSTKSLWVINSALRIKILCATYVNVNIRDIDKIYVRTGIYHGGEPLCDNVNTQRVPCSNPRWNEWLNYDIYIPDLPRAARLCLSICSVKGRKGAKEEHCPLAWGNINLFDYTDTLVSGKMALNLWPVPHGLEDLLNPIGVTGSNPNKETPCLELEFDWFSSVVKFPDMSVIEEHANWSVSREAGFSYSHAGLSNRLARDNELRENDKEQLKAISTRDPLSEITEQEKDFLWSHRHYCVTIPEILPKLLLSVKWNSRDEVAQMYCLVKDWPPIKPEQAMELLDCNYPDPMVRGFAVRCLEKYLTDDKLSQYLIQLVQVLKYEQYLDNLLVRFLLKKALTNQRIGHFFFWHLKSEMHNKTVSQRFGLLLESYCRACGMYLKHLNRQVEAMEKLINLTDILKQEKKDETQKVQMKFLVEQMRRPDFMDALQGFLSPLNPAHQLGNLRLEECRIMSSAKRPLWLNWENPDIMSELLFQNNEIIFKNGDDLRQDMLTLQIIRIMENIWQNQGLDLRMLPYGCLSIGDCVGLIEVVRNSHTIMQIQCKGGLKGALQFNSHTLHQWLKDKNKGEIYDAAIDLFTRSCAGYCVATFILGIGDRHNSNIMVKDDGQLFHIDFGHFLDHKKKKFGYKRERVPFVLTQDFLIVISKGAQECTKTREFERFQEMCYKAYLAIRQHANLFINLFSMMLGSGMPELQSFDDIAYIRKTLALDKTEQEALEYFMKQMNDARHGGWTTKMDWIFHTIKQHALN
Sequence (P27986 whole entry partner): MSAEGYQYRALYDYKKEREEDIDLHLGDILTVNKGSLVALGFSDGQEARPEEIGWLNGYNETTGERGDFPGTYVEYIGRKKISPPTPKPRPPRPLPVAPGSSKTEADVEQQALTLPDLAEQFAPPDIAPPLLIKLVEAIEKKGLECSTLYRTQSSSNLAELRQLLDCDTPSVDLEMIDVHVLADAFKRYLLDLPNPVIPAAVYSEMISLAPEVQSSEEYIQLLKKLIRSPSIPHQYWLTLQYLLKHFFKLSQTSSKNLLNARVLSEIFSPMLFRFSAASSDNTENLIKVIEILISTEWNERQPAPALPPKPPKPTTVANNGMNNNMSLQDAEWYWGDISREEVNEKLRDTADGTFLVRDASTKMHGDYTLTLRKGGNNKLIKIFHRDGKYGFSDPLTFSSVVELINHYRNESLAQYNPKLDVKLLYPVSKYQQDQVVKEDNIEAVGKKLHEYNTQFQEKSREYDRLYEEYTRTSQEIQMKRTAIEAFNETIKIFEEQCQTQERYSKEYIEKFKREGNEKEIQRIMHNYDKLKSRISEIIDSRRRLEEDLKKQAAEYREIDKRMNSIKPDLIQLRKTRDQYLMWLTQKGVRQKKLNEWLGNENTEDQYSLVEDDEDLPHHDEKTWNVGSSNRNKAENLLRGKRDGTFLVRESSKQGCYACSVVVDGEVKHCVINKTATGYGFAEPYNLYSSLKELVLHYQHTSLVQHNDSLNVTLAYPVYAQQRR

SMILES	IC50
O=C(Nc1cccc2c(=O)[nH]n(-c3cccc(Cl)c3)c12)c1cc(F)cc(C(F)(F)F)c1 [Compound I-950]	1000 to 10000 nM
O=C(Nc1cc(N[C@H]2C[C@@H](F)C2)cc2c1C(c1cc(F)ccc1Cl)NC2=O)c1cc(F)cc(C(F)(F)F)c1 (single isomer, unassigned) [Compound I-541]	≤ 100 nM
O=C1NC(c2cc(F)ccc2Cl)c2c(NC(=O)c3cc(Cl)cc4cccnc34)cc(Br)cc21 (stereo not shown) [Compound I-802]	10000 to 100000 nM
Cc1ccccc1C1NC(=O)c2c(C#N)ccc(NC(=O)c3cc(F)cc(C(F)(F)F)c3)c21 (stereo not shown) [Compound I-313]	100 to 500 nM
O=C(Nc1cc(Br)cc2c1[C@@H](c1cc(F)ccc1Cl)NC2=O)N[C@]1(CC(F)(F)F)CCCOC1 (racemic) [Compound I-1961]	10000 to 100000 nM
COc1ccc(-c2cc(NC(=O)c3cc(F)cc(C(F)(F)F)c3)c3c(c2)C(=O)NC3c2cc(F)ccc2Cl)cn1 (stereo not shown) [Compound I-705]	≤ 100 nM
CC(=O)c1cc(NC(=O)c2cc(F)cc(Cl)c2)c2c(c1)C(=O)NC2c1cc(F)ccc1Cl (stereo not shown) [Compound I-215]	100 to 500 nM
O=C1N[C@H](c2cc(F)ccc2Cl)c2c(N[C@H]3CCOc4ccccc43)cc(-c3cnn(C(F)F)c3)nc21 (single isomer, unassigned) [Compound I-2159]	1000 to 10000 nM
O=C(Nc1cc(-c2ccc3nnc(C(F)F)n3c2)cc2c1[C@@H](c1cc(F)ccc1Cl)NC2=O)c1cc(F)cc(C(F)(F)F)c1 [Compound I-1924]	1000 to 10000 nM
O=C1N[C@@H](c2cc(F)ccc2Cl)c2c(NC(=O)[C@@H]3CCC[C@H](OC(F)(F)F)C3)cccc21 (single isomer, unassigned) [Compound I-2214]	10000 to 100000 nM
CC(C)(O)c1cc(NC(=O)N2C[C@H](O)c3ccccc32)c2c(c1)C(=O)N[C@H]2c1cc(F)ccc1Cl (single isomer, unassigned) [Compound I-2123]	500 to 1000 nM
CC1(Cc2cc(NC(=O)N3C[C@@](O)(C(F)(F)F)c4cc(F)ccc43)c3c(c2)C(=O)N[C@@H]3c2cc(F)ccc2Cl)COC1 (single isomer, unassigned) [Compound I-2658]	1000 to 10000 nM
O=C(Nc1cc(-c2ccncc2F)nc2c1C(c1cc(F)ccc1Cl)NC2=O)c1cc(F)cc(Cl)c1 (stereo not shown) [Compound I-502]	≤ 100 nM
O=C1NC(c2cc(F)ccc2Cl)c2c(NC(=O)C3(O)CCCC3)cc(-c3ccc4ncnn4c3)cc21 (stereo not shown) [Compound I-1813]	10000 to 100000 nM
Cc1c(F)cccc1C1NC(=O)c2cc(Br)cc(NC(=O)c3cc(F)cc(C(F)(F)F)c3)c21 (stereo not shown) [Compound I-751]	100 to 500 nM
O=C(Cc1cc(F)ccc1C(F)(F)F)Nc1cc(Br)cc2c1C(c1cc(F)ccc1Cl)NC2=O (stereo not shown) [Compound I-560]	1000 to 10000 nM
COc1ncc(-c2cc(NC(=O)c3cc(F)cc(C(F)(F)F)c3)c3c(c2)C(=O)NC3c2cc(F)ccc2Cl)cc1F (stereo not shown) [Compound I-1419]	≤ 100 nM
Cc1ccccc1C1NC(=O)c2c(C(O)CO)ccc(NC(=O)c3csc4ccccc34)c21 (stereo not shown) [Compound I-120]	100 to 500 nM
O=C1NC(c2ccccc2Cl)c2c(NC(=O)c3coc4c(F)cc(F)cc34)ccnc21 (stereo not shown) [Compound I-209]	500 to 1000 nM
CC1(Cc2cc(NC(=O)N3C[C@](O)(C(F)(F)F)c4cc(F)ccc43)c3c(c2)C(=O)N[C@H]3c2cc(F)ccc2Cl)COC1 (single isomer, unassigned) [Compound I-2659]	1000 to 10000 nM
O=C1NC(c2cc(F)ccc2Cl)c2c(C#Cc3cc(F)cc(C(F)(F)F)c3)cccc21 (stereo not shown) [Compound I-2187]	10000 to 100000 nM
CC(C)(O)COc1ncc(-c2cc(NC(=O)c3cc(F)cc(C(F)(F)F)c3)c3c(c2)C(=O)NC3c2cc(F)ccc2Cl)cn1 (stereo not shown) [Compound I-1529]	≤ 100 nM

SMILES	IC50
O=C1NC(c2ccccc2OC(F)(F)F)c2c(NC(=O)c3csc4ccccc34)ccnc21 (stereo not shown) [Compound I-70]	1000 to 10000 nM
O=C(NCCC(O)C(F)(F)F)c1cccc2c1C(c1cc(F)ccc1Cl)NC2=O (stereo not shown) [Compound I-2094]	10000 to 100000 nM
O=C(Nc1cc(-c2ccc3nncn3c2)cc2c1C(c1cc(F)ccc1Cl)NC2=O)c1cc(F)cc(C(F)(F)F)c1 (stereo not shown) [Compound I-821]	≤ 100 nM
O=C(Nc1cc(NC(=O)C2COC2)cc2c1C(c1cc(F)ccc1Cl)NC2=O)c1cc(F)cc(C(F)(F)F)c1 (stereo not shown) [Compound I-344]	≤ 100 nM
O=C(Nc1cc(-c2ccc3ncc(Cl)n3c2)cc2c1C(c1cc(F)ccc1Cl)NC2=O)c1cc(F)cc(C(F)(F)F)c1 (stereo not shown) [Compound I-1694]	≤ 100 nM
N#CCCN(C(=O)c1cc(F)cc(C(F)(F)F)c1)c1cc(O)cc2c1C(c1cc(F)ccc1Cl)NC2=O (stereo not shown) [Compound I-2251]	10000 to 100000 nM
N#Cc1ccncc1-c1cc(NC(=O)c2cc(F)cc(C(F)(F)F)c2)c2c(c1)C(=O)NC2c1cc(F)ccc1Cl (stereo not shown) [Compound I-1537]	≤ 100 nM
O=C(Nc1cc(Br)cc2c1C(c1cc(F)ccc1Cl)NC2=O)c1ccc[n+]([O-])c1 (stereo not shown) [Compound I-1284]	10000 to 100000 nM
O=C1NC(c2cc(F)ccc2Cl)c2c(NC(=O)c3cc(F)cc4oc(=O)[nH]c34)cc(Br)cc21 (stereo not shown) [Compound I-1319]	1000 to 10000 nM
O=C1NC(c2cc(F)ccc2Cl)c2c1cccc2-n1[nH]c(=O)c2ccccc21 (stereo not shown) [Compound I-1714]	10000 to 100000 nM
O=C(Nc1cc(-c2cnc(OCCO)nc2)cc2c1C(c1cc(F)ccc1Cl)NC2=O)c1cc(F)cc(C(F)(F)F)c1 (stereo not shown) [Compound I-1474]	≤ 100 nM
N[C@@H]1CCC[C@H](C(=O)Nc2cc(-c3ccc4ncnn4c3)cc3c2C(c2cc(F)ccc2Cl)NC3=O)C1 (mixture of isomers) [Compound I-1844]	10000 to 100000 nM
O=C1NC(c2cc(F)ccc2Cl)c2c(NC(=O)N3CC4CC(F)(C4)C3)cc(Br)cc21 (stereo not shown) [Compound I-1753]	10000 to 100000 nM
O=C1N[C@@H](c2cc(F)ccc2Cl)c2c(NC(=O)N3C[C@@H](O)c4c(F)cccc43)cccc21 (single isomer, unassigned) [Compound I-2144]	1000 to 10000 nM
N#Cc1ccc2c(c1)CCN2c1cc(NC(=O)c2cc(F)cc(C(F)(F)F)c2)c2c(c1)C(=O)NC2c1cc(F)ccc1Cl (stereo not shown) [Compound I-1263]	≤ 100 nM
O=C(Nc1cc(Nc2cn[nH]c2)cc2c1[C@@H](c1cc(F)ccc1Cl)NC2=O)c1cc(F)cc(C(F)(F)F)c1 [Compound I-1259]	1000 to 10000 nM
O=C(Nc1cc(Br)cc2c1[C@H](c1cc(F)ccc1F)NC2=O)c1cc(F)cc(C(F)(F)F)c1 [Compound I-674]	100 to 500 nM
O=C(Nc1cccc2c1C(c1cc(Br)ccc1Cl)NC2=O)c1cc(O)cc(C(F)(F)F)c1 (stereo not shown) [Compound I-414]	100 to 500 nM
O=C(Nc1cc(OC2COC2)cc2c1C(c1cc(F)ccc1Cl)NC2=O)c1cc(F)cc(C(F)(F)F)c1 (stereo not shown) [Compound I-1131]	≤ 100 nM
O=C1N[C@H](c2cc(F)ccc2Cl)c2c(NC(=O)N3C[C@H](O)c4ccccc43)cc(-c3ccc4ncnn4c3)cc21 (single isomer, unassigned) [Compound I-1578]	10000 to 100000 nM
O=C1N[C@@H](c2cc(F)ccc2Cl)c2c(NC(=O)N3C[C@](O)(C(F)(F)F)c4cc(F)ccc43)cc(Cl)cc21 (single isomer, unassigned) [Compound I-2511]	100 to 500 nM
O=C1NCc2c(NC(=O)N3CCCC[C@H]3Cc3ccccc3)cccc21 (stereo in doubt) [Compound I-988]	10000 to 100000 nM

SMILES	IC50
O=C(O)c1cc(-c2ccc3ncnn3c2)cc2c1C(c1cc(F)ccc1Cl)NC2=O (stereo not shown) [Compound I-1784]	10000 to 100000 nM
O=C(Nc1cc(CS(=O)(=O)c2ccccc2)cc2c1[C@H](c1cc(F)ccc1Cl)NC2=O)c1cc(F)cc(C(F)(F)F)c1 [Compound I-1591]	≤ 100 nM
O=C(Nc1cc(Cc2ccc3c(c2)CNC3=O)cc2c1C(c1cc(F)ccc1Cl)NC2=O)c1cc(F)cc(C(F)(F)F)c1 (stereo not shown) [Compound I-1496]	≤ 100 nM
O=C1N[C@H](c2cc(F)ccc2Cl)c2c(NC(=O)N3C[C@H](O)c4c(F)cccc43)cccc21 (single isomer, unassigned) [Compound I-2143]	500 to 1000 nM
O=C(Nc1cc(-c2n[nH]c3ccncc23)cc2c1C(c1cc(F)ccc1Cl)NC2=O)c1cc(F)cc(C(F)(F)F)c1 (stereo not shown) [Compound I-938]	100 to 500 nM
Cc1ccccc1C1NC(=O)c2cccc(-c3cc4c(F)cc(F)cc4[nH]3)c21 (stereo not shown) [Compound I-479]	1000 to 10000 nM
O=C1NC(c2ccccc2C(F)(F)F)c2c(NC(=O)c3nsc4ccccc34)cccc21 (stereo not shown) [Compound I-221]	10000 to 100000 nM
O=C1NC(c2cc(F)ccc2Cl)c2c(Nc3nc4ccccc4s3)cc(-c3ccc4ncnn4c3)cc21 (stereo not shown) [Compound I-1659]	100 to 500 nM
O=C(Nc1cc(Br)cc2c1[C@@H](c1cc(F)ccc1C(F)F)NC2=O)c1cc(F)cc(C(F)(F)F)c1 [Compound I-798]	1000 to 10000 nM
CNc1cc(NC(=O)N2C[C@](O)(C(F)(F)F)c3cc(F)ccc32)c2c(c1)C(=O)N[C@H]2c1cc(F)ccc1Cl (single isomer, unassigned) [Compound I-2643]	1000 to 10000 nM
O=C(Nc1cc(-c2ccc3ncc(C(F)F)n3c2)cc2c1C(c1cc(F)ccc1Cl)NC2=O)c1cc(F)cc(C(F)(F)F)c1 (stereo not shown) [Compound I-1866]	≤ 100 nM
O=C(Nc1cc(C2CCCN2)cc2c1C(c1cc(F)ccc1Cl)NC2=O)c1cc(F)cc(C(F)(F)F)c1 (stereo not shown) [Compound I-1218]	≤ 100 nM
Cc1nn(C(=O)Nc2cccc3c2C(c2cc(F)ccc2Cl)NC3=O)c2ccccc12 (stereo not shown) [Compound I-2380]	500 to 1000 nM
O=C(CCc1ccccc1)Nc1cccc2c1C(c1cc(F)ccc1Cl)NC2=O (stereo not shown) [Compound I-2362]	10000 to 100000 nM
COc1ccc2c(c1)CCN2C(=O)Nc1cccc2c1C(c1cc(F)ccc1Cl)NC2=O (stereo not shown) [Compound I-2437]	10000 to 100000 nM
N#Cc1cc(NC(=O)N2C[C@@H](O)c3cc(F)ccc32)c2c(c1)C(=O)N[C@@H]2c1cc(F)ccc1Cl (single isomer, unassigned) [Compound I-2492]	500 to 1000 nM
O=C1N[C@@H](c2cc(F)ccc2Cl)c2c(N[C@@H]3COCc4ccccc43)cc(Br)cc21 (racemic) [Compound I-1894]	10000 to 100000 nM
N#CC1CC(Oc2cc(NC(=O)c3cc(F)cc(C(F)(F)F)c3)c3c(c2)C(=O)NC3c2cc(F)ccc2Cl)C1 (stereo not shown) [Compound I-1129]	≤ 100 nM
O=C(Nc1cc(Br)cc2c1C(c1cc(F)ccc1Cl)NC2=O)NC12CC3CC(CC(C3)C1)C2 (stereo not shown) [Compound I-1257]	100 to 500 nM
O=C1NC(c2cc(F)ccc2Cl)c2c(NC(=O)N3CCCC3c3ccccc3)cc(Br)cc21 (stereo not shown) [Compound I-769]	1000 to 10000 nM
